By solubility is commonly meant the concentration that dissolves in the medium under given conditions.

This is an account of results in paper PMC5155426, “Organic Redox Species in Aqueous Flow Batteries: Redox Potentials, Chemical Stability and Solubility” (Scientific Reports, 2016).

The nature of series [1]: CV of GC electrode ground with pure anthraquinone (Pourbaix diagram). In kind it is physicochemical. The note with it: for E0' of unsubstituted AQ: surface-attached AQ on GC electrode. From the text:
Organic R edox Species in Aqueous F low Batteries: R edox Potentials, C hem ical Stab ilit y and So lub ilit y S2: Pure Anthraquinone Pourbaix diagram
The redox potential of pure 9,10 -anthraquinone (Sigma-Aldrich, 97%) was estimated in aqueous solutions at different pH values by measuring the CV response of a GC electrode that had been freshly grinded with anthraquinone mixed with acetone to yield a surface covered/attached species. The CVs are shown in Figure 2, and it is noticed that as the pH increases, there is a significant side- reaction, and it was only possible to obtain reliable data up to pH 10. Thus, the redox potential at pH 13 is only extrapolated. The solutions were freshly prepared and were: 1 M H2SO4 f or pH 0, 0.2 M HCl/KCl buffer for pH 2, Reagecon Technical buffers for pH 4 and 7, 0 . 2 M acetate buffer f or pH 5 and Radiometer Analytical buffer (carbonate) for pH 10.
Figure 2 CVs for the anthraquinone-grinded GC electrode at different […]
Figure 3: The observed standard potential as a function of pH (right).
The line represents linear regression data. Colored arrows indicates the peaks interpreted as the pure AQ peaks used for the Pourbaix […]

Series [2] is described as follows: pKa of the central (hydro)quinone groups estimated from the Pourbaix diagram. In kind it is physicochemical. The note with it: aqueous media, estimated from slope change in Pourbaix diagram, Fig. 5. The protocol:
Quinones generally undergo a reversible two-electron reduction/oxidation. The redox potential is strongly pH dependent, as the reaction may or may not involve two protons as illustrated in the scheme-of-squares mechanistic pathway in Fig. 3 [26]. At pH < pKa1, the reaction includes two protons and thus E^0’ decreases with 59 mV per pH unit (at 25 °C)[24]. At pKa1 < pH < pKa2 and pKa2 < pH only one and no protons are involved, whereby E^0’ decreases with 30 and 0 mV per pH unit, respectively. Generally, the reactions that include protons are slower and result in a lower electrochemical rate constant (k0) and may ultimately lead to higher charge-transfer resistance in the RFB. Thus, the choice of pH in the RFB environment strongly influences quinone electrochemical performance.
Similarly to sulfonated AQs, the positions of the hydroxyl groups affect E^0’, but in acidic only to a small extent. […] The three former all have the hydroxyl groups on positions close to the quinone groups. The difference in E^0’ for these hydroxylated AQs and others may be found in the pKa values of the central (hydro)quinone groups. Those are not trivial to measure given the insolubility at lower pH values for hydroxylated AQs, but they can be estimated from the Pourbaix diagram in Fig. 5 [24][26]. For instance, in the Pourbaix diagram of AQDS(2,7), E^0’ follows the expected −59 mv/pH unit from pH 0 to pH 7 (pKa1). Then the first (hydro)quinone group deprotonates, and the slope changes to 30 mV/pH unit until pH 10 (pKa2) and E^0’ becomes pH-independent. […] Thus, if one can predict or measure reasonable values for these pKa values, it should be possible to predict which ones will have a more negative or positive E^0’ at higher pH.

Series [3] can be described thus: Cyclic voltammetry: formal redox potential, peak current ratio, electrochemical reversibility. Type of series: physicochemical. The protocol: The investigated compounds were used as-purchased and without any purification. […] For each series of CVs, a freshly polished electrode was used. The CVs for soluble compounds in 1 mM concentration were recorded in a glass beaker with a customized lid in nitrogen purged solutions of three different pHs, namely pH 0 (1 M H2SO4), pH 7 (0.5 M phosphate buffer) and pH 13 (1 M NaOH). The pH of the NaOH solution is taken as 13 to account for carbonization of the solution with exposure to air. A background CV was recorded before each CV experiment to exclude background contaminations. The CVs of insoluble compounds in 1 M H2SO4, or 0.5 M phosphate buffer were recorded as follows: 6 mL of the supporting electrolyte was mixed with approximately 4 mL of acetone, and then a small amount of the quinone was added so that its concentration was around 1 mM.
Each CV was analyzed in terms of peak potentials and peak currents. Peak currents were determined by subtracting a polynomial fit of the background from the recorded current as exemplified in Supplementary, S1. A plot of the absolute values of the peak currents to the square root of the scan rate was constructed and, when reasonable, a linear fit included to evaluate the electrochemical (Nernstian) reversibility of the electrochemical reaction. The peak current Ip for reversible reactions are given by equation (1).
Where F is the Faraday constant, R the gas constant, T the temperature, n the number of electron transferred, A the area of the electrode, DOthe diffusion coefficient and CO^*the bulk concentration of the analyte and v the scan rate. The peak current ratio is expected to be close to one for reversible species. The formal redox potential (E^0’), which is the adjusted form of the standard redox potential, where effects of the medium is taken into account, is reported here as the midpoint potential between the two peak potentials in the CV[24]. All half-cell potentials in this work refer to the normal hydrogen electrode (VNHE).

Series [4] can be described thus: Aqueous solubility estimation (OECD test #105) in 1 M supporting electrolytes. How it is done:
After each addition the test tube was ultrasonicated and/or shaken vigorously using a Vortex Generator for at least 10 minutes at room temperature. Then the tube was inspected visually for undissolved sample and the addition of supporting electrolyte solution continued until the sample seemed just dissolved. The volumes just before and after full dissolution are used for calculating the solubility interval (Supplementary, S4 and S5) and the solubility is estimated as the average between the two.

Series [5] can be described thus: Visual inspection of dissolved samples on standing (thixotropy, phase separation). Type of series: physicochemical. The protocol:
Dissolved samples were left to stand for 12 hours and visually inspected for thixotropy using a vortex generator. For very insoluble compounds the amount of sample was decreased to 0.01 g and the dissolution time increased up to 24 h.
In practical RFBs thixotropy is not wanted, as the redox solutions can be kept still for long times. […] Thixotropy of AQ dyes in aqueous dispersions has been described earlier, as well as some methods to overcome the problem such as addition of polyvinylpyrrolidone to the solution[43].

For series [6] the following is noted: cited from earlier work; for chemical stability (in water): ref 29 (tetracyano benzoquinone), 30 (dicyano dichloro benzoquinone), 31 (tetracarboxyl para benzoquinone), 32 (duroquinone).
The nature of series [7]: TEMPOL stability in aqueous buffer. Type of series: physicochemical. The note with it: after 30 days, uncharged state. The protocol: As an alternative to quinones, the nitroxide radical TEMPOL, was tested. […] This behaviour is similar to previous studies. […] A few other nitrogen-containing redox active species (Fig. 2 and Supplementary, S7) were included.
Setting [8] is: read-out: pKa1 of the (hydro)quinone groups.
Where [9] appears, read: read-out: pKa2 of the (hydro)quinone groups.
[10] abbreviates: pH 0 (1 M H2SO4), midpoint of CV peak potentials, about 1 mM, acetone added for insoluble compounds.
[11] abbreviates: 1 M KCl supporting electrolyte prepared from MilliQ water, saline or isotonic, thermodynamic from solid, Solubility, 1 M KCl, room temperature.

Values joined by “and” are separate entries in the source; they are usually repeats but may differ in a detail not shown here. Equal values may be shown once. “Also recorded” adds a separate entry of the source. Read-outs that look alike come from different tables or passages of the source. Where only a bound is given, the exact number is not on record here.

For the compound `O=C1c2ccccc2C(=O)c2ccccc21` [AQ, 9,10-anthraquinone], in series [1] (pH 0), the “E0' lower than that of HQ(1,4)” value is reported as “about 300 mV” and the “E0' of unsubstituted AQ” value is on record as 0.4 VNHE. The “E0' of unsubstituted AQ” value in series [1] (pH 7) turned out to be 0 VNHE. The “E0' of unsubstituted AQ, estimated by extrapolation in Fig. 5” value in series [1] (pH 13, reliable data only up to pH 10) is on record as roughly −0.4 VNHE.
Take `O=C1c2cccc(O)c2C(=O)c2c(O)cccc21` [AQDH(1,8), 1,8-dihydroxy-9,10-anthraquinone]: the pKa is roughly 4 in series [2] (setting [8]) and greater than 13 in series [2] (setting [9]). In series [3] (pH 13), the Electrochemical reversibility result was “Reversible”.
Turning to `O=C1c2ccc(O)cc2C(=O)c2ccc(O)cc21` [AQDH(2,6), 2,6-dihydroxy-9,10-anthraquinone], the pKa in series [2] (setting [8]) and in series [2] (setting [9]) was greater than 13 throughout. In addition, the Peak current ratio is reported as 0.83(4) in series [3] (pH 0), 0.9(1) in series [3] (pH 7) and 1.1(1) in series [3] (pH 13). Also, the “formal redox potential E0'” value in series [3] (setting [10]) was 0.039(4) VNHE and 0.04 VNHE. Moreover, in series [3] (pH 13), the Electrochemical reversibility entry is “Reversible”. Further, the solubility is less than 10 mM in series [4] (1 M H2SO4 supporting electrolyte prepared from MilliQ water, aqueous buffer, thermodynamic from solid, Solubility, 1 M H2SO4, room temperature, interval just after / before full dissolution) and less than 10 mM in series [4] (setting [11]).
As for `O=C1c2cccc(S(=O)(=O)[O-])c2C(=O)c2c1cccc2S(=O)(=O)[O-].[K+].[K+]` [AQDS(1,8), 9,10-anthraquinone-1,8-disulfonate dipotassium], the Electrochemical reversibility result in series [3] (pH 0) is reported as “Quasireversible”; in series [3] (pH 7) it was “Quasireversible”; in series [3] (pH 13) it was “Reversible”. The Peak current ratio is given as 1.04(7) in series [3] (pH 0), 0.4(1) in series [3] (pH 7) and 1.0(3) in series [3] (pH 13). The “formal redox potential E0'” value in series [3] (setting [10]) is 0.03 VNHE; in series [3] (pH 0 (1 M H2SO4); midpoint of CV peak potentials; about 1 mM; acetone added for insoluble compounds; 8)), 0.027(4) VNHE; in series [3] (pH 13 (1 M NaOH), midpoint of CV peak potentials), -0.464(4) VNHE. For the same compound, the “Comment: behaviour of the solution upon standing” value (shortened to “Comment: behaviour”) in series [5] (electrolyte not stated) is “Phase separation”. Besides, the “solubility compared with AQDS(2,7) and AQS(2)” value in series [4] (sulfonated AQs) was “more than ten times lower solubility”.
Take `O=C1c2ccc(S(=O)(=O)O)cc2C(=O)c2ccc(S(=O)(=O)O)cc21` [AQDS(2,6), AQ-2,6-disulfonate]: the “E0'” value in series [6] (pH 0) is roughly 0.166 VNHE.
As to `O=C1c2ccc(S(=O)(=O)O)cc2C(=O)c2cc(S(=O)(=O)O)ccc21` [AQDS(2,7), 9,10-anthraquinone-2,7-disulfonate disodium], the pKa in series [2] (setting [8]) was 7; in series [2] (setting [9]), 10. Besides, the Electrochemical reversibility result in series [3] (pH 0) is “Quasireversible”; in series [3] (pH 7) it was “Quasireversible”; in series [3] (pH 13), “Reversible”. For the same compound, the Peak current ratio was 0.7(1) in series [3] (pH 0), 0.56(3) in series [3] (pH 7) and 0.96(7) in series [3] (pH 13). Further, the results for the “formal redox potential E0'” value in series [3] (setting [10]) and in series [3] (pH 0 (1 M H2SO4); midpoint of CV peak potentials; about 1 mM; acetone added for insoluble compounds; 7)) were 0.165 VNHE and 0.165(5) VNHE, respectively. Also, the thixotropy result in series [5] (all supporting electrolytes, disodium form as received) is “thixotropy was observed”. Moreover, the “Comment: behaviour” value in series [5] (electrolyte not stated) is reported as “T hixotropic behaviour”.
`O=C1c2ccccc2C(=O)c2c1cc(S(=O)(=O)O)c(O)c2O` [AQS(2)DH, 3,4-dihydroxy-9,10-anthraquinone-2-sulfonate sodium]: the figures for the Peak current ratio in series [3] (pH 0), in series [3] (pH 7) and in series [3] (pH 13) were 0.9(1), 0.85(6) and 1.1(1), respectively. For the same compound, the Electrochemical reversibility entry in series [3] (pH not specified) is “Quasie versib le”. In series [5] (in KOH (1 M)), the “Comment: behaviour” value is recorded as “T hixotropic behavior; also recorded: thixotropy was observed”. The solubility result in series [4] (1 M H2SO4, room temperature, interval just after / before full dissolution) is “barely soluble”; in series [4] (setting [11]), less than 10 mM.
Regarding `CC1(C)CC(O)CC(C)(C)N1[O]` [TEMPOL, 4-hydroxy-2,2,6,6-tetramethylpiperidine-1-oxyl], the Electrochemical reversibility entry in series [3] (pH 7) is on record as “reversible”. Also, the “degradation in aqueous buffer” value in series [7] is “no degradation”.
For the compound `N#CC1=C(C#N)C(=O)C(Cl)=C(Cl)C1=O` [dicyano dichloro benzoquinone], in series [6], the “E0'” value was 0.9 VNHE and the “chemical stability (in water)” value is given as “readily reacts with water”.
`CC1=C(C)C(=O)C(C)=C(C)C1=O` [duroquinone]: in series [6] (aqueous (acidic and neutral) solutions), the potential is 0.5 VNHE. Besides, the “chemical stability (in water)” value in series [6] was “electrochemically reversible and chemically stable”.
Regarding `O=C(O)C1=C(C(=O)O)C(=O)C(C(=O)O)=C(C(=O)O)C1=O` [tetracarboxyl para benzoquinone], in series [6], the calculated standard potential is reported as greater than 1 VNHE and the “chemical stability (in water)” value is on record as “decomposes after synthesis”.
With `N#CC1=C(C#N)C(=O)C(C#N)=C(C#N)C1=O` [tetracyano benzoquinone], in series [6], the “E0' estimated higher than that of dicyano dichloro benzoquinone” value is 0.3 V and the “chemical stability (in water)” value was “Chemical instability in water”.
For hexahydroxy anthraquinone, in series [6] (pH 13), the “experimentally obtained E0'” value is reported as “about −0.7 VNHE”.
